From PubChem BioAssay AID248 (DTP/NCI, 2004)
Inconclusive results and toxic doses are left out. No stated cut-off is given here; in the data, active means T/C of 150% or more; inactive means T/C below 125%.

Tested on: L1210 leukemia ip in BDF1 mice, survival T/C
Assay: NCI In Vivo Anticancer Drug Screen. Data for tumor model L1210 Leukemia (intraperitoneal) in B6D2F1 (BDF1) mice
Details: endpoint: mean survival time, higher = longer survival
Method in brief: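 Transplanted-tumor mice were given test agent; controls received vehicle only. Survival readings from the two groups were divided (treated over control).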

[1] = dose: 100.0 mg/kg/injection, schedule: Q01DX009 (ip), vehicle: saline with Tween-80
[2] = dose: 200.0 mg/kg/injection, schedule: Q01DX001 (ip), vehicle: carboxymethylcellulose (CMC)
[3] = dose: 400.0 mg/kg/injection, schedule: Q01DX001 (ip), vehicle: carboxymethylcellulose (CMC)
[4] = dose: 50.0 mg/kg/injection, schedule: Q01DX001 (ip), vehicle: other
[5] = dose: 100.0 mg/kg/injection, schedule: Q01DX001 (ip), vehicle: other
[6] = dose: 200.0 mg/kg/injection, schedule: Q01DX001 (ip), vehicle: other
[7] = dose: 400.0 mg/kg/injection, schedule: Q01DX001 (ip), vehicle: other
[8] = dose: 100.0 mg/kg/injection, schedule: Q01DX009 (ip), vehicle: Klucel (hydroxypropylcellulose) (HPC)
[9] = dose: 200.0 mg/kg/injection, schedule: Q01DX009 (ip), vehicle: Klucel (hydroxypropylcellulose) (HPC)
[10] = dose: 100.0 mg/kg/injection, schedule: Q01DX001 (ip), vehicle: saline
[11] = dose: 100.0 mg/kg/injection, schedule: Q04DX003 (ip), vehicle: saline with Tween-80
[12] = dose: 200.0 mg/kg/injection, schedule: Q01DX009 (ip), vehicle: saline with Tween-80
[13] = dose: 200.0 mg/kg/injection, schedule: Q04DX003 (ip), vehicle: saline with Tween-80
[14] = dose: 400.0 mg/kg/injection, schedule: Q01DX009 (ip), vehicle: saline with Tween-80
[15] = dose: 400.0 mg/kg/injection, schedule: Q04DX003 (ip), vehicle: saline with Tween-80
[16] = dose: 100.0 mg/kg/injection, schedule: Q04DX002 (ip), vehicle: Klucel (hydroxypropylcellulose) (HPC)
[17] = dose: 200.0 mg/kg/injection, schedule: Q04DX002 (ip), vehicle: Klucel (hydroxypropylcellulose) (HPC)
[18] = dose: 400.0 mg/kg/injection, schedule: Q04DX002 (ip), vehicle: Klucel (hydroxypropylcellulose) (HPC)
[19] = dose: 200.0 mg/kg/injection, schedule: Q01DX001 (ip), vehicle: saline
[20] = dose: 400.0 mg/kg/injection, schedule: Q01DX001 (ip), vehicle: saline

Measured: T/C

O=C1C2C(c3cc4ccccc4n31)N2c1ccccc1 (configuration not stated)
inactive: dose: 0.75 mg/kg/injection, schedule: Q01DX001 (ip), vehicle: water 103 % of control | dose: 1.5 mg/kg/injection, schedule: Q01DX001 (ip), vehicle: water 103 % of control | dose: 3.0 mg/kg/injection, schedule: Q01DX001 (ip), vehicle: water 100 % of control | dose: 6.0 mg/kg/injection, schedule: Q01DX001 (ip), vehicle: water 106 % of control | dose: 12.0 mg/kg/injection, schedule: Q01DX001 (ip), vehicle: water 91 % of control | dose: 24.0 mg/kg/injection, schedule: Q01DX001 (ip), vehicle: water 106 % of control

O=C(Nc1ccc(Cl)c(Cl)c1)Sc1ccc(Cl)cc1
inactive: dose: 25.0 mg/kg/injection, schedule: Q01DX009 (ip), vehicle: saline with Tween-80 100 % of control | dose: 50.0 mg/kg/injection, schedule: Q01DX009 (ip), vehicle: saline with Tween-80 103 % of control | [1] 101 % of control

O=S1(=O)/C(=C\C2CCCCC2)c2c1c(-c1ccccc1)c1ccccc1c2-c1ccccc1
inactive: dose: 50.0 mg/kg/injection, schedule: Q01DX001 (ip), vehicle: carboxymethylcellulose (CMC) 86 % of control | [2] 92 % of control | [3] 89 % of control

CC(=O)C(CCl)C(C)=O
inactive: [4] 102 % of control | [5] 96 % of control | [6] 96 % of control | [7] 96 % of control

COC1OC(CN(CCOS(C)(=O)=O)CCOS(C)(=O)=O)C2OC(C)(C)OC12 (configuration not stated)
inactive: dose: 50.0 mg/kg/injection, schedule: Q01DX001 (ip), vehicle: Klucel (hydroxypropylcellulose) (HPC) 114 % of control | dose: 100.0 mg/kg/injection, schedule: Q01DX001 (ip), vehicle: Klucel (hydroxypropylcellulose) (HPC) 108 % of control | dose: 200.0 mg/kg/injection, schedule: Q01DX001 (ip), vehicle: Klucel (hydroxypropylcellulose) (HPC) 107 % of control | dose: 400.0 mg/kg/injection, schedule: Q01DX001 (ip), vehicle: Klucel (hydroxypropylcellulose) (HPC) 105 % of control

O=C(O)c1c(Br)c(Br)c(Br)c(Br)c1C(=O)Nc1ccc(Cl)c(Cl)c1
inactive: [8] 95 % of control | [9] 98 % of control | dose: 400.0 mg/kg/injection, schedule: Q01DX009 (ip), vehicle: Klucel (hydroxypropylcellulose) (HPC) 120 % of control

O=C(Nc1cccc2ccccc12)C(F)(F)F
inactive: [10] 93 % of control | [1] 98 % of control | [11] 90 % of control | [12] 104 % of control | [13] 95 % of control | [14] 98 % of control | [15] 93 % of control

Nc1nc(N)c(N=Nc2ccc(S(=O)(=O)Nc3ncccn3)cc2)cc1N=Nc1ccccc1
inactive: dose: 100.0 mg/kg/injection, schedule: Q01DX001 (ip), vehicle: carboxymethylcellulose (CMC) 101 % of control | [2] 95 % of control | [3] 103 % of control

O=C(O)CCCCOc1ccc([N+](=O)[O-])cc1Cl
inactive: [8] 109 % of control | [9] 103 % of control

COC(=O)c1cn2cc(Cl)cc(Cl)c2c1C(=O)OC
inactive: dose: 100.0 mg/kg/injection, schedule: Q04DX002 (ip), vehicle: saline with Tween-80 95 % of control | dose: 200.0 mg/kg/injection, schedule: Q04DX002 (ip), vehicle: saline with Tween-80 92 % of control | dose: 400.0 mg/kg/injection, schedule: Q04DX002 (ip), vehicle: saline with Tween-80 95 % of control

COc1cc(C(C)=O)cc(OC)c1OC
inactive: [11] 102 % of control | [13] 96 % of control | [15] 98 % of control

C=C1C(=O)O[C@@H]2/C=C(/C)[C@@]3(O)C=C[C@](C)(C[C@@H](OC(=O)/C(=C\C)COC(C)=O)[C@@H]12)O3
inactive: dose: 0.06 mg/kg/injection, schedule: Q01DX009 (ip), vehicle: carboxymethylcellulose (CMC) 102 % of control | dose: 0.12 mg/kg/injection, schedule: Q01DX009 (ip), vehicle: carboxymethylcellulose (CMC) 101 % of control | dose: 0.25 mg/kg/injection, schedule: Q01DX009 (ip), vehicle: carboxymethylcellulose (CMC) 98 % of control

c1cc2c([nH]1)CCCC2
inactive: dose: 75.0 mg/kg/injection, schedule: Q01DX001 (ip), vehicle: acetone 106 % of control | dose: 150.0 mg/kg/injection, schedule: Q01DX001 (ip), vehicle: acetone 111 % of control | dose: 300.0 mg/kg/injection, schedule: Q01DX001 (ip), vehicle: acetone 100 % of control

CC(C)(c1cc(Cl)c(OCCO)c(Cl)c1)c1cc(Cl)c(OCCO)c(Cl)c1
inactive: [1] 103 % of control | [12] 103 % of control | [14] 95 % of control

NNc1ncnc2c1ccn2C1OC(CO)C(O)C1O (configuration not stated)
inactive: dose: 5.0 mg/kg/injection, schedule: Q01DX001 (ip), vehicle: saline 110 % of control | dose: 10.0 mg/kg/injection, schedule: Q01DX001 (ip), vehicle: saline 110 % of control | dose: 20.0 mg/kg/injection, schedule: Q01DX001 (ip), vehicle: saline 121 % of control | dose: 35.0 mg/kg/injection, schedule: Q01DX001 (ip), vehicle: saline 108 % of control | dose: 40.0 mg/kg/injection, schedule: Q01DX001 (ip), vehicle: saline 115 % of control | dose: 53.0 mg/kg/injection, schedule: Q01DX001 (ip), vehicle: saline 114 % of control | dose: 80.0 mg/kg/injection, schedule: Q01DX001 (ip), vehicle: saline 114 % of control | [10] 119 % of control

O=C1CCC(N2C(=O)C3C4CCC(O4)C3C2=O)C(=O)N1 (configuration not stated)
inactive: [16] 103 % of control | [11] 96 % of control | [17] 113 % of control | [13] 100 % of control | [18] 103 % of control | [15] 96 % of control

CCCOC(=O)CCOC
inactive: [10] 94 % of control | [19] 103 % of control | [20] 103 % of control

c1ccc(C2CCCCO2)cc1 (configuration not stated)
inactive: [1] 94 % of control | [12] 100 % of control | [14] 88 % of control

CC1(C)C(=NC2CCCCC2)C(C)(C)C1=NC1CCCCC1
inactive: dose: 75.0 mg/kg/injection, schedule: Q01DX001 (ip), vehicle: saline 101 % of control | dose: 150.0 mg/kg/injection, schedule: Q01DX001 (ip), vehicle: saline 100 % of control | dose: 300.0 mg/kg/injection, schedule: Q01DX001 (ip), vehicle: saline 100 % of control

CC(C)(C)NC(=O)CCC(=O)O
inactive: dose: 75.0 mg/kg/injection, schedule: Q04DX002 (ip), vehicle: Klucel (hydroxypropylcellulose) (HPC) 89 % of control | dose: 150.0 mg/kg/injection, schedule: Q04DX002 (ip), vehicle: Klucel (hydroxypropylcellulose) (HPC) 92 % of control | dose: 300.0 mg/kg/injection, schedule: Q04DX002 (ip), vehicle: Klucel (hydroxypropylcellulose) (HPC) 100 % of control

COC(=O)C1CCCN1C(=O)C1CSC(C)(C)N1C=O (configuration not stated)
inactive: dose: 100.0 mg/kg/injection, schedule: Q04DX003 (ip), vehicle: saline 103 % of control | dose: 200.0 mg/kg/injection, schedule: Q04DX003 (ip), vehicle: saline 92 % of control | dose: 400.0 mg/kg/injection, schedule: Q04DX003 (ip), vehicle: saline 92 % of control

CCOC(=O)c1c[nH]c2cc([N+](=O)[O-])ccc2c1=O
inactive: dose: 25.0 mg/kg/injection, schedule: Q04DX003 (ip), vehicle: saline with Tween-80 91 % of control | dose: 50.0 mg/kg/injection, schedule: Q04DX003 (ip), vehicle: saline with Tween-80 86 % of control

Cn1c(=O)cc(C=Nc2ccc(C(=O)O)cc2)c2ccccc21
inactive: [10] 100 % of control | [19] 96 % of control | [20] 100 % of control

O=C(Nc1ccc([As](=O)(O)O)cc1)Nc1cccc(Cl)c1Cl
inactive: [8] 100 % of control | [16] 100 % of control | [9] 100 % of control | [17] 92 % of control | [18] 110 % of control

Oc1[nH]c2ccccc2c1N=Nc1ccccn1
inactive: [5] 93 % of control | [6] 101 % of control | [7] 104 % of control

Cc1ccc(C(=O)/C(Cl)=N/O)cc1
inactive: [4] 96 % of control | [5] 104 % of control

CC(=O)C(C(=O)NCc1ccccc1)C(c1ccc2c(c1)OCO2)C(C(C)=O)C(=O)NCc1ccccc1 (configuration not stated)
inactive: [10] 98 % of control | [19] 96 % of control | [20] 97 % of control
